Experimental data taken from patent US8841317B2 (Emory University, priority 2010, dated 2014).
“Also recorded” adds a separate entry of the source. Read-outs that look alike come from different tables or passages of the source.

How the values were obtained:
[1] = system: RAW 264.7 murine macrophages; assay: Nitric oxide release from TLR ligand-stimulated murine macrophages (Griess method); format: cell-based; details: TLR ligands LPS or Pam3CSK4
Protocol: (§1) TLR ligand concentrations ranging from (LPS: 10-0.31 picomolar (pM) and Pam3CSK4: 10-0.31 μg/ml) and non-TLR ligands (mouse IP-10 and TNFα: 1000-31 pg/ml) were made in duplicate wells using sterile PBS by serial fold dilutions in the 96-well tissue culture plates at 50 μl final volumes. Freshly grown THP-1cells, RAW264.7, ScCr, HEK-TLR2/6 and HEK-TLR4-MD2-CD14 transfected cells each adjusted to 10^6 cell/ml and 250 μl aliquots were dispensed into each well at a final cell density of 250×10^3 in the designated 96-well plates. The plates were then incubated overnight at 37° C. with 5% CO2 and humidity. Supernatants from stimulated cells were harvested and stored at −20° C. until further use.
(§2) Freshly grown adherent RAW 246.7 or 23ScCr (TLR4-deficient) macrophages were scraped by a cell scraper. Harvested cells were washed and re-suspended in Dulbecco's complete media, counted and adjusted to 10^6 cell/ml. […] aliquots were then dispensed into each well at final 250×10^3 cell density in the designated 96-well plates prior to stimulation with TLR ligands or recombinant cytokines as mentioned above. […] Nitric oxide release was quantified using the Griess chemical method as previously described [Zughaier S M, Tzeng Y L, Zimmer S M, Datta A, Carlson R W, et al. (2004) Neisseria meningitidis lipooligosaccharide structure-dependent activation of the macrophage CD14/Toll-like receptor 4 pathway. […]

[2] = system: THP-1 human macrophages; assay: TNFα release from TLR ligand-stimulated human macrophages (ELISA); format: cell-based; details: human and murine macrophages; TLR ligands LPS or Pam3CSK4
Protocol: as §1
(§3) Released cytokines TNFα and IL-6 and chemokines CXCL10 (IP-10), MIP-2α and IL-8 were quantified by DuoSet ELISA (R&D Systems, Minneapolis, Minn.) following the manufacturer's instructions as previously described [Zughaier S M, Zimmer S M, Datta A, Carlson R W, Stephens D S (2005) Differential induction of the toll-like receptor 4-MyD88-dependent and -independent signaling pathways by endotoxins. Infect Immun 73: 2940-2950.].

[3] = system: HEK293 cells transfected with TLR2 alone or TLR2/6 receptors; assay: Pam3CSK4-induced IL-8 release (ELISA); format: cell-based, human; details: no drug = 1400 pg/ml
Protocol: as §1, §3

[4] = system: THP-1 cells; assay: LDH release into supernatant; format: cell-based, human; details: THP-1 cells incubated 48 hr with 50 μM; DMSO control 5 IU/L
Protocol: (§4) Biochim Biophys Acta 887: 13-22.]. […] Cellular aliquots (100 μl) were taken daily and cells were diluted 1:1 with the vital dye trypan blue 0.4% solution (Cellgro, Mediatech Inc, Herndon, Va.) in PBS and viable cells were counted. LDH release into the supernatant was also measured to assess the toxicity of the drugs. […] Cell Microbiol 7: 1251-1262.].

[5] = system: human or murine macrophages; assay: Cellular viability (trypan blue exclusion, morphology, LDH); format: cell-based, human and murine
Protocol: as §4

[6] = system: human macrophage cells THP-1; assay: Autophagy by electron microscopy; format: cell-based; details: overnight, LPS 2 pM plus drug 50 μM
Protocol: Human macrophage cells were fixed for 1 hr with 2% glutaraldehyde in 0.1M sodium cacodylate buffer, rinsed in the same buffer and the post-fixed with 2% osmium tetroxide in the same buffer for 1 hr at room temperature. The samples were then dehydrated with a graded ethanol series through 3×100%, 2× in propylene oxide and embedded in Spurr's resin. Sections were stained with 1% uranyl acetate and lead citrate. Electron microscopy imaging was then performed at a magnification of 3597×.

[7] = system: THP-1 cells; assay: Detection of acidic vesicular organelles (acridine orange); format: cell-based, human; details: 24 hr treatment, acridine orange 1 μg/ml
Protocol: THP-1 cells were plated on cover slips and allowed to attach. Following treatments for 24 hr with DMSO alone (control), Red-Br-nos, LPS, Red-Br-nos and LPS, cells were stained with 1 μg/ml acridine orange for 15 min, washed with PBS, and examined under a Zeiss fluorescence microscope using a 40× objective lens [Herman-Antosiewicz A, Johnson D E, Singh S V (2006) Sulforaphane causes autophagy to inhibit release of cytochrome C and apoptosis in human prostate cancer cells. Cancer Res 66: 5828-5835.].

[8] = doses as high as 300 mg/kg; cited from earlier work
[9] = system: ScCr (TLR4-deficient) cells; assay: Sterile inflammation: nitric oxide release after murine TNFα stimulation; format: cell-based; details: 50 μM for 1 hr or overnight, then murine TNFα 1000-31.2 pg/ml
Protocol: as §1, §2

[10] = system: RAW264 (TLR4-sufficient) cells; assay: Sterile inflammation: nitric oxide release after murine IP-10 (CXCL10) stimulation; format: cell-based; details: 50 μM for 1 hr or overnight, then murine IP-10 1000-31.2 pg/ml
Protocol: as §1, §2

[11] = system: THP-1 macrophages; assay: Respiratory burst ROS release (lucigenin chemiluminescence); format: cell-based, human
Protocol: The enhanced chemiluminescence method was used as previously described [Zughaier S M, Ryley H C, Jackson S K (1999) A melanin pigment purified from an epidemic strain of Burkholderia cepacia attenuates monocyte respiratory burst activity by scavenging superoxide anion. Infect Immun 67: 908-913.]. Briefly, freshly grown THP-1 cells were adjusted to 2×10^6/ml, transferred to two large tissue culture flasks labeled as primed or unstimulated. Two pmole/ml LPS were added to prime cells or left unstimulated as control cells. Both flasks were incubated overnight at 37° C. under 5% CO2. […] The cells were collected in universal tubes, washed twice with culture medium and resuspended in standard buffer (4.58 mM KH2PO4, 8.03 mM NaHPO4, 0.5 mM MgCl2, 0.45 mM CaCl2, 1% (w/v) glucose, 0.033% (w/v) KCl, 0.76% (w/v) NaCl and 0.1% (w/v) endotoxin-free bovine serum albumin (pH 7.3) at 2×10^6/ml. The chemiluminescence probe lucigenin (Sigma) was added to the cell suspension (25 μl/ml of cells from 1.0 mM stock solution) and mixed gently. Aliquots (150 μl) of the cellular mixture were transferred into at least quadruplicate wells of a white 96-well plate (FluoroNunc-PolySorp; Nalge Nunc International, Rochester, N.Y.). The respiratory burst was triggered with 50 μl of PMA (1 μM). Chemiluminescence was measured in relative light units (a measure of the number of photons generated by the reaction at each time point). Chemiluminescence was measured using a luminometer (ML3000, Dynatech Laboratories Inc. Chantilly, Va.) and the plate was read immediately and then at 2 min intervals for the next 90 min [Zughaier S M, Ryley H C, Jackson S K (1999) A melanin pigment purified from an epidemic strain of Burkholderia cepacia attenuates monocyte respiratory burst activity by scavenging superoxide anion. Infect Immun 67: 908-9131.

Row | Compound | TLR-mediated nitric oxide (NO) release [1] | TLR-mediated TNFα release [2] | IL-8 release [3] [pg/mL] | LDH release [4] [IU/L] | cellular toxicity / viability [5] | autophagy-related vacuolation (electron micrographs) [6] | acidic vesicular organelles (AVOs) [7] | toxicity [8] | cellular toxicity / viability ([5]; human and murine macrophages) | nitric oxide release versus no drug [9] | nitric oxide release versus no drug [10] | ROS release, LPS primed cells ([11]; 50 μM added just prior to PMA-triggered respiratory burst) | ROS release, unprimed macrophages ([11]; 50 μM added just prior to respiratory burst) | ROS release, primed macrophages ([11]; added 2 hr prior to triggering the respiratory burst)
1 | COc1ccc2c(c1OC)CO[C@@H]2[C@H]1c2c(c(Br)c3c(c2OC)OCO3)CCN1C [Red-Br-nos, (R)-9-bromo-5-((S)-4,5-dimethoxy-1,3-dihydroisobenzofuran-1-yl)-4-methoxy-6-methyl-5,6,7,8-tetrahydro-[1,3]di-oxolo-[4,5-g]isoquinoline] | dampened | dampened | 400 | 10 | without evidence of cellular toxicity | increased vacuolation in the cytoplasm | confirmed the drug-induced autophagic activity; also recorded: formation (red fluorescence) of acridine orange-accumulating acidic vesicular organelles (AVOs) | non-toxic | – | – | – | – | – | –
2 | COc1ccc2c(c1OC)C(=O)O[C@@H]2[C@H]1c2c(c(Br)c3c(c2OC)OCO3)CCN1C [Br-nos, (S)-3-((R)-9-bromo-4-methoxy-6-methyl-5,6,7,8-tetrahydro-[1,3]dioxolo[4,5-g]isoquinolin-5-yl)-6,7-dimethoxyiso-benzofuran-1(3H)-one] | dampened | dampened | 650 | 8 | – | – | – | non-toxic | without evidence of cellular toxicity | – | – | – | – | –
3 | COc1ccc2c(c1OC)C(=O)O[C@@H]2[C@H]1c2c(cc3c(c2OC)OCO3)CCN1C [noscapine, (S)-6,7-dimethoxy-3-((R)-4-methoxy-6-methyl-5,6,7,8-tetrahydro[1,3]-dioxolo-[4,5-g]isoquinolin-5-yl)isobenzo-furan-1(3H)-one] | – | – | – | 7 | – | – | – | – | did not induce inflammatory responses or impair cellular viability | not significant | not significant | enhanced ROS release | not in unprimed macrophages | no change in ROS release
